Experiments:
[1] = target: T1, recombinant human deoxyuridine nucleotidohydrolase (dUTPase) (Homo sapiens, UniProt P33316); assay: fluorescence-based dUTPase inhibition assay; assay type: biochemical; details: for % relative inhibition vs. positive control: mean across three concentrations, typically 100, 50 and 25 μmol/L, compared to in-run positive control
T1 construct: made in house
T1 sequence (P33316 1-164 isoform P33316-2): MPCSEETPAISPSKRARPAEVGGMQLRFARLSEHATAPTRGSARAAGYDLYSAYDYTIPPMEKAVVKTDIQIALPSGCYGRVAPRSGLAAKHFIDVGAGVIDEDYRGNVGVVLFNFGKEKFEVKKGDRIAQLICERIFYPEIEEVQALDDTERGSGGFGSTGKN
Source text: Recombinant human deoxyuridine nucleotidohydrolase (dUTPase) is expressed and purified as described in Ladner R D, Carr S A, Huddleston M J, McNulty D E, Caradonna S J. J Biol Chem. 1996 Mar. 29; 271(13):7752-7. All drugs stocks are aliquoted and diluted as appropriate prior to use. The oligonucelotide primer, templates and fluorophore- and quencher-labeled detection probes are synthesized by Integrated DNA Technologies (Coralville, Iowa), subjected to polyacrylamide gel electrophoresis purification and reconstituted in Omnipur sterile nuclease-free water (EMD Chemicals USA, Gibbstown N.J.) at a stock concentration of 100 μmol/L. The two non-emissive (dark) quenching molecules incorporated into the detection probes include the Iowa black fluorescein quencher (IBFQ; absorption max 531 nm) and ZEN (non-abbreviation; absorption max 532 nm). The fluorescent label utilized is 6-FAM (5′-carboxyfluorescein; excitation max.=494 nm, emission max.=520 nm). Probes are further diluted to a working stock of 10 μmol/L and aliquoted to avoid repeated freeze/thaw cycles. AmpliTaq Gold DNA Polymerase, GeneAmp 10×PCR Buffer 2, MgCl2 and MicroAmp Optical 96-well Reaction Plates are purchased from Applied Biosystems (Carlsbad, Calif.). dNTPs are purchased individually at stock concentrations of 100 mmol/L from New England Biolabs at HPLC-certified >99% purity (Ipswich, Mass.).
Reaction mixtures contained primer, probe and template at an equimolar final concentration of 0.4 μmol/L. Magnesium chloride (MgCl2) is included at a final concentration of 2 mmol/L. Non-limiting dNTPs are included in the reaction mix in excess at a final concentration of 100 μmol/L (dUTP/dTTP is excluded). AmpliTaq Gold DNA polymerase is added at 0.875 U/reaction, 2.5 μl of 10×PCR buffer 2 added and nuclease-free ddH2O added to a final reaction volume of 25 μl. For dUTP inhibition analysis, the volume of ddH2O is further modified to accommodate an additional 1 μl of dUTPase (10 ng/μt) and 1 μl of inhibitor or DMSO control. Thermal profiling and fluorescence detection is performed using a customized thermal program on board a Roche Lightcycler LC480 Instrument II. For analysis of dNTPs, the thermal profile consisted of an 8 min 37° C. step followed by a 10 min 95° C. step to ‘hot-start’ the Taq polymerase and a primer extension time of up to 30 min at 60° C. Raw fluorescence spectra for 6-FAM is measured at specified time intervals to follow assay progression on board a Roche LightCycler 480 Software Version 1.5 and exported and analyzed in Microsoft Excel (Microsoft, Redmond Wash.) and Prism (GraphPad Software, La Jolla Calif.). Fluorescence values for blank reactions (limiting dNTP omitted) are subtracted to give normalized fluorescence units (NFU) to account for background fluorescence.
Test compounds are screened in a fluorescence-based assay. The assay employs a DNA polymerase-based approach utilizing an oligonucleotide template with 3 distinct regions: a 3′ primer binding region, a mid-template dUTP/thymidine triphosphate (TTP) detection region and a 5′ 6-[…] (FAM)-labeled probe binding region that incorporates a black hole quenching moiety. During the reaction, the probe and primer hybridize to the oligonucleotide template to form the template:primer:probe complex. When Taq polymerase binds to the primer in the TPP complex and dUTP is present, successful extension of the nascent strand occurs and the inherent 5′ to 3′ exonuclease activity of Taq polymerase cleaves and displaces the 6-FAM-labeled probe in a 5′ to 3′ direction, releasing the 6-FAM fluorophore from its proximity to the […]. This displacement effectively disrupts the Forster resonance energy transfer (FRET) and the resulting fluorescence detected upon excitation is directly proportional to the amount of the dUTP available in the assay for incorporation. […]

[2] = tested on: colorectal (HCT116 and SW620) cell line models; assay: MTS growth inhibition assay; assay type: cell-based; details: 5-FU between 0 and 100 μmol/L
Method: The Cell Titer AQueous MTS assay (Promega) is carried out according to the manufacturers guidelines. […] The combination effect is determined by the combination index (CI) method utilizing Calcusyn software (Biosoft, Ferguson, Mo.). Fraction affected (FA) is calculated from the percent growth inhibition: FA=[…]. CI values <1, synergism; 1-1.2, additive and >1.2, antagonism.
Test compounds are evaluated for their antitumor activity in colorectal cancer cells using the MTS growth inhibition assay. HCT116 and SW620 cells are exposed to increasing concentrations of each agent for 72 hours and growth inhibition is directly compared to vehicle-treated controls. The NSCLC cell lines A549 and H1299 are exposed to increasing concentrations of each agent for 72 hours and growth inhibition is directly compared to vehicle-treated controls.
MTS growth inhibition assays are performed to evaluate the effectiveness of the test compounds alone and in combination with the fluoropyrimidine thymidylate synthase (TS) inhibitor 5-fluorouracil (5-FU) at inhibiting the growth of colorectal (HCT116 and SW620) cell line models. […] Simultaneous treatment with increasing concentrations of 5-FU and a test compound at fixed concentrations of 25 μmol/L is determined.

[3] = tested on: colorectal (HCT116), breast (MCF-7) and non-small cell lung (H1299, A549, H358 and H460) cell line models; assay: colony forming assay; assay type: cell-based; details: FUdR between 0.5 and 2.5 μmol/L; all cell lines evaluated
Method: Colony forming assay showing the ability of colon (SW620, HCT116), non-small cell lung (A549, H460, H1299 and H358) and breast (MCF7) cancer cells to survive and proliferate following transient 24 hour exposure to test compounds, FUdR and combinations are determined. Specifically, cells are seeded at densities between 50 and 100 cells/well in 24-well plates. Twenty-four hours later, cells are treated with increasing concentrations of a rtest compound, a fixed dose of FUdR and combinations of these. After 24 hours, drug is removed, cells are rinsed and allowed to outgrow for 10-14 days. At the conclusion of the outgrowth, cells are fixed in 60% ice cold methanol and stained with 0.1% crystal violet, scanned and counted. Data is presented as percentage of untreated controls (mean±SD). Fraction affected and combination indexes are calculated according to the method of Chou and Talalay where <1 is indicative of a synergistic drug interaction.
Colony forming assays are performed to evaluate the effectiveness of test compounds alone and in combination with the fluoropyrimidine thymidylate synthase (TS) inhibitor fluorodeoxyuridine (FUdR) at reducing cancer cell viability in colorectal (HCT116), breast (MCF-7) and non-small cell lung (H1299, A549, H358 and H460) cell line models. […]

| % relative inhibition vs. positive control [1] [%] | Structure (SMILES) | other results |
| --- | --- | --- |
| 103 | CC(C)[C@@H](NS(=O)(=O)CCCCCN1CCC(=O)NC1=O)c1ccc(F)c(OCC2CC2)c1 [Example 80, (R)—N-(1-(3-(cyclopropylmethoxy)-4-fluorophenyl)-2-methylpropyl)-5-(2,4-dioxotetrahydropyrimidin-1(2H)-yl)pentane-1-sulfonamide] | – |
| 145 | CC(C)[C@@H](NS(=O)(=O)CC/C=C/CN1CCC(=O)NC1=O)c1ccc(F)c(OCC2CC2)c1 [Example 79, (R,E)-N-(1-(3-(cyclopropylmethoxy)-4-fluorophenyl)-2-methylpropyl)-5-(2,4-dioxotetrahydropyrimidin-1(2H)-yl)pent-3-ene-1-sulfonamide] | – |
| – | O=c1[nH]cc(F)c(=O)[nH]1 [Example 5-FU, 5-fluorouracil] | growth inhibition [2]: dose-dependent increases in growth inhibition |
| – | O=c1[nH]c(=O)n([C@H]2C[C@H](O)[C@@H](CO)O2)cc1F [FUdR, fluorodeoxyuridine] | colonies formed [3]: dose-dependent decreases in colonies formed |
| 214 | C[C@@H](NS(=O)(=O)CCCCCn1ccc(=O)[nH]c1=O)c1ccc(F)c(OCC2CC2)c1 [Example 84, (R)—N-(1-(3-(cyclopropylmethoxy)-4-fluorophenyl)ethyl)-5-(2,4-dioxo-3,4-dihydropyrimidin-1(2H)-yl)pentane-1-sulfonamide] | IC50 ([1]; recombinant dUTPase, 8 min at 37° C.): 300 nM |
| 174 | C[C@@H](NS(=O)(=O)CCCOCN1CCC(=O)NC1=O)c1cccc(OCC2CC2)c1 [Example 82, (R)—N-(1-(3-(cyclopropylmethoxy)phenyl)ethyl)-3-((2,4-dioxotetrahydropyrimidin-1(2H)-yl)methoxy)propane-1-sulfonamide] | – |
| 166 | CC[C@@H](NS(=O)(=O)CCCOCN1CCC(=O)NC1=O)c1ccc(F)c(OCC2CC2)c1 [Example 83, (R)—N-(1-(3-(cyclopropylmethoxy)-4-fluorophenyl)propyl)-3-((2,4-dioxotetrahydropyrimidin-1(2H)-yl)methoxy)propane-1-sulfonamide] | – |

| Structure (SMILES) | % relative inhibition vs. positive control [1] [%] | other results |
| --- | --- | --- |
| C[C@H](NS(=O)(=O)CCCCCn1ccc(=O)[nH]c1=O)c1ccc(F)c(OCC2CC2)c1 [Example 86, (S)—N-(1-(3-(cyclopropylmethoxy)-4-fluorophenyl)ethyl)-5-(2,4-dioxo-3,4-dihydropyrimidin-1(2H)-yl)pentane-1-sulfonamide] | 54 | – |
| CC(C)COc1cc(C(C)(C)NS(=O)(=O)CC/C=C/CN2CCC(=O)NC2=O)ccc1F [Example 81, (E)-5-(2,4-dioxotetrahydropyrimidin-1(2H)-yl)-N-(2-(4-fluoro-3-isobutoxyphenyl)propan-2-yl)pent-3-ene-1-sulfonamide] | 80 | – |

Reference: patent publication US11247984B2, “Uracil containing compounds” (CV6 Therapeutics (NI) Limited, priority 2017, dated 2022)
